Data on 56 molecules can be found in PMC8533149 (Biomolecules, 2021).

Series [1] concerns HIV-1 strain NL4-3 in MT4 cells. The series is described as follows: Cytopathic effect inhibition test. Type of series: cell-based. Conditions: HIV-1 NL4-3, MT4 cells. How it is done:
Human T cell leukemia (MT4) cell line was maintained in RPMI-1640 (“Chumakov FSC R&D IBP RAS”, Moscow, Russia) with 10% of fetal bovine serum (FBS, Invitrogen, Waltham, MA, USA), L-glutamine and gentamicin. Green monkey kidney (Vero, Beach, FL, USA) cell line was maintained in 2 × Eagle MEM (“Chumakov FSC R&D IBP RAS”, Russia) with 5% FBS with L-glutamine, penicillin and streptomycin. Cell cultures were incubated in the present of 5% CO2 at 37 °C. HIV-1 strain NL4-3 was obtained via cell transfection with pNL4-3 3 (ARP2006, NIBSC, Potters Bar, UK).
Eight two-fold dilutions of stock solutions of the compounds in two replicates were prepared in RPMI-1640 (“Chumakov FSC R&D IBP RAS”, Russia). Compound dilutions were mixed with equal volumes of the virus suspension containing 100 CCID50 (50% tissue culture infectious dose). Control cells were treated with the same sequential concentrations of DMSO as in compound dilutions. Then, the MT4 cell suspension (approx. 2 × 10^4 cells per well) in RPMI-1640 containing 10% FBS (Invitrogen, South America) was added to experimental mixtures. A final concentration series started from 25 μM. Each experiment contained virus dose titration in the inoculate to assure the acceptable dose-range. After a nine-day incubation (5% CO2, at 37 °C), cytopathic effect (CPE) was visually accessed via microscope. EC50 values were calculated according to the Karber method. All experimental procedures were performed in two replicates and were repeated two to four times. Mean and SD were calculated with OriginPro 8 (OriginLab, St. Louis, MO, USA).

The subject of the next series is MT4 cells. Nature of the series: Cytotoxicity test. Conditions: for СС50 (MT4): Table S12, nine days; for CC50: Figure 7. Type of series: cell-based. The method, then: Green monkey kidney (Vero, Beach, FL, USA) cell line was maintained in 2 × Eagle MEM (“Chumakov FSC R&D IBP RAS”, Russia) with 5% FBS with L-glutamine, penicillin and streptomycin. […] HIV-1 strain NL4-3 was obtained via cell transfection with pNL4-3 3 (ARP2006, NIBSC, Potters Bar, UK).
MT4 cell suspensions were added to the wells with compound dilutions and DMSO control (approx. 2 × 10^4 cells per well). […] All experimental procedures were performed in two replicates and were repeated two to four times. Mean and SD were calculated with OriginPro 8 (OriginLab, St. Louis, MO, USA).

Series [2] deals with HIV-1 LTR-III G-quadruplex (FAM/TAMRA-labeled LTR-III). Nature of the series: FRET melting assay, LTR-III G4. The conditions noted are these: for LTR III stabilization: Figure 7, stabilization group; for LTR-III ΔTm: Table S1 primary screening, ligand:ODN 50:1, singlicate; for LTR-III (average): Table S12, average stabilization. Type of series: binding. In short, it runs like this:
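Melting is followed by FAM fluorescence (ex 495/em 520 nm) while heating at 1 °C/min from 30 to 95 °C. Labelled ODN at 0.5 μM, pre-annealed in 10 mM Li cacodylate, 100 mM KCl, pH 7.4, mixed with ligand at 50:1 (25 μM), or 20:1 and 2:1 for titration. ΔTm is relative to the 0.25% DMSO buffer control.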

Setting [3] is: Table S12, CPE, nine-day incubation, read-out: EC50.

Structures are written as SMILES. Where two headings read alike, the source gives them in different places.

On to `Cc1cn([C@H]2C[C@H](N=[N+]=[N-])[C@@H](CO)O2)c(=O)[nH]c1=O` [AZT, reference compound], for which, in series [1] (setting [3]), the EC50 is 0.0071 ± 0.00043 µM. In addition, in the series with MT4 cells, the “СС50 (MT4)” value stood at 8.0 ± 1.5 µM. As for `COc1ccc(C=C2N=C(CC(C)C)C(=O)N(OC)C2=O)cc1` [M 802], in series [2], the “LTR III stabilization” value was under 1 °C, the “LTR-III ΔTm” value is -2.3 °C and the “LTR-III (average)” value is -2,3 °C. Further, in the series with MT4 cells, the CC50 was found to be 7 ± 3 µM and the “СС50 (MT4)” value amounted to 6.6 ± 3.1 µM. Turning to `COc1ccc(OC)c(C=C2N=C(C)N(C)C2=O)c1` [N 840], in series [2], the “LTR III stabilization” value was under 1 °C, the “LTR-III ΔTm” value was -2.5 °C and the “LTR-III (average)” value is -1,55 °C. For the same molecule, in the series on MT4 cells, the CC50 was over 25 µM and the “СС50 (MT4)” value is over 25 µM. `COc1cc(C=CC2=NC(=Cc3ccc(O)cc3)C(=O)N2C)cc(OC)c1O` [N 906]: in series [2], the “LTR III stabilization” value is under 1 °C, the “LTR-III ΔTm” value turned out to be 0.1 °C and the “LTR-III (average)” value was 0,1 °C. In addition, in the series on MT4 cells, the CC50 stood at 7 ± 3 µM and the “СС50 (MT4)” value worked out at 6.6 ± 3.1 µM. On to `COc1cc(O)ccc1C=C1N=C(C=Cc2c(F)c(F)c(F)c(F)c2F)N(C)C1=O` [N 1049], for which the EC50 in series [1] (Figure 7, read-out: Antiviral activity EC50 (HIV)) came to 2 ± 1 µM. Further, the EC50 in series [1] (setting [3]) was found to be 2.1 ± 1.4 µM. In addition, in series [2], the “LTR-III ΔTm” value amounted to 1.8 °C and the “LTR-III (average)” value is 1,8 °C. Further, in the series on MT4 cells, the midpoint of cytotoxicity, the CC50, lay at 5 ± 3 µM and the “СС50 (MT4)” value turned out to be 5.2 ± 2.5 µM. For the molecule `COc1cc(O)ccc1/C=C1N=C(/C=C/N(C)C)N(C)C\1=O` [N 1122], in series [2], the “LTR-III ΔTm” value came to 2.3 °C and the “LTR-III (average)” value was 2,3 °C. Besides, in the series on MT4 cells, the CC50 was over 25 µM and the “СС50 (MT4)” value is listed as over 25 µM. For `COc1ccc(C=C2N=C(C)N(CC(N)=O)C2=O)cc1` [SA 120], in series [2], the “LTR III stabilization” value was under 1 °C, the “LTR-III ΔTm” value is -2.1 °C and the “LTR-III (average)” value is -1,35 °C. Also, in the series with MT4 cells, the CC50 is over 25 µM and the “СС50 (MT4)” value is listed as over 25 µM.

In the case of `CC1=NC(=Cc2ccc(O)cc2)C(=O)N1CCCNC(=O)OC(C)(C)C` [X 10], the “LTR-III ΔTm” value in series [2] is -0.2 °C. On the same count and under the same terms, with `C=CCc1cc(C=C2N=C(C)N(C)C2=O)ccc1O` [X 11] the figure was -0.2 °C; with `C#CCN1C(=O)C(=Cc2ccc(O)cc2)N=C1C` [X 12], 0.2 °C; with `CC(=O)Oc1ccc(C=C2N=C(C)NC2=O)cc1` [X 13], -0.8 °C. The same measure, in the same setting: then `CC(=O)C1=NC(=Cc2ccc(O)cc2)C(=O)N1C` [X 18], with 0.6 °C. Same read-out and setting: then `CN1C(=O)C(=Cc2ccc(OCc3ccccc3)cc2)N=C1C(C)(C)C` [X 20], with -0.2 °C. For `CN1C(=O)C(=Cc2ccc(O)cc2)N=C1CCCCCNC(=O)OC(C)(C)C` [X 21], the “LTR-III ΔTm” value in series [2] is -0.1 °C. On the same count and under the same terms, then `COc1ccc(CN(C(C)=O)C(C)C2=NC(=Cc3ccc(O)cc3)C(=O)N2C)cc1` (stereo not drawn) [X 23], with 0.5 °C.

With `O=C1NC(c2ccccc2)=NC1=Cc1ccc(O)cc1` [X 24], the “LTR-III ΔTm” value in series [2] is -0.5 °C. `O=C(O)c1ccc(-c2ccccc2)cc1` [X 26]: the “LTR-III ΔTm” value in series [2] is -0.1 °C. Turning to `CNC(=O)C(N)C(O)c1ccc(OCc2ccccc2)cc1` (stereo not drawn) [X 27], the “LTR-III ΔTm” value in series [2] is -0.1 °C. The same measure, in the same setting: with `CC(=O)NC(=Cc1ccc([N+](=O)[O-])cc1)C(=O)NC1CCCCC1` [X 28] the figure was -0.3 °C. In the case of `CNC(=O)C(=Cc1ccc(O)c(CO)c1)NC(=O)c1ccccc1` [X 29], in series [2], the “LTR-III ΔTm” value is -0.6 °C. Take `CC1=NC(=Cc2ccccc2)C(=O)N1Cc1ccccc1` [ZS142]: the “LTR-III ΔTm” value in series [2] was -1.4 °C. Same read-out and setting: with `COc1ccc(N)cc1C=C1N=C(C)N(C)C1=O` [ZS 62] the figure was 0 °C; with `CC1=NC(=Cc2ccncc2)C(=O)N1CC(=O)O` [ZS 69], -0.4 °C. Still for that read-out and setting: then `COc1ccc(C(N)=C2N=C(C)N(C)C2=O)cc1` [ZS 99], with -0.2 °C; and `CC1=NC(=C(N)c2ccccc2)C(=O)N1C` [ZS 109], with -0.7 °C; and `COc1ccc(C=C2N=C(C)N(Cc3ccccc3)C2=O)cc1` [ZS 128], with -0.3 °C.

On to `COc1ccc(C=C2N=C(C)N(C3CCCCC3)C2=O)cc1` [ZS 129], for which, in series [2], the “LTR-III ΔTm” value was -0.2 °C.

As to `CC1=NC(=Cc2ccc([N+](=O)[O-])cc2)C(=O)N1Cc1ccccc1` [ZS 143], the “LTR-III ΔTm” value in series [2] was -0.9 °C. On to `CC1=NC(=Cc2ccc([N+](=O)[O-])cc2)C(=O)N1C1CCCCC1` [ZS 146], for which the “LTR-III ΔTm” value in series [2] was found to be 0.2 °C. The same measure, in the same setting: with `NC(=C1N=C2C=CC=CN2C1=O)c1ccccc1` [ZS 167] the figure was -0.1 °C; with `CC1=NC(=Cc2ccc(O)cc2Br)C(=O)N1C` [ZS 174], -0.3 °C; with `CC1=NC(=C(N)c2ccc(Cl)cc2)C(=O)N1C` [ZS 178], -0.3 °C.

Regarding `CN(C)C=CC1=NC(=C(N)c2ccccc2)C(=O)N1C` [ZS 182], the “LTR-III ΔTm” value in series [2] stood at 0 °C. Still for that read-out and setting: with `CC1=NC(=C(N)c2ccc(Br)cc2)C(=O)N1C` [ZS 190] the figure was -0.5 °C; with `COC(=O)c1ccc(C(N)=C2N=C(C)N(C)C2=O)cc1` [ZS 199], -0.4 °C. Still for that read-out and setting: then `NC(=C1N=C2C=CC=CN2C1=O)c1ccc(Cl)cc1` [ZS 228], with 0.3 °C.

As to `CN1C(=O)C(=Cc2ccc(O)cc2)N=C1C=Cc1ccccc1` [ccA 1], in series [2], the “LTR-III ΔTm” value was determined as 0.6 °C. Turning to `CN1C(=O)/C(=C/c2ccc(O)cc2)N=C1/C=C/c1ccc(O)cc1` [ccA 2], the “LTR-III ΔTm” value in series [2] was 0.4 °C.

With `CN1C(=O)C(=Cc2ccc(O)cc2)N=C1C=CC=Cc1ccccc1` [ccA 4], in series [2], the “LTR-III ΔTm” value turned out to be 0.8 °C. Same read-out and setting: then `CN1C(=O)C(=Cc2ccc(O)cc2)N=C1C=Cc1ccc(Br)cc1` [ccA 7], with 0.8 °C; and `CC=CC=CC1=NC(=Cc2ccc(O)cc2)C(=O)N1C` [ccA 8], with 0.2 °C; and `CN1C(=O)C(=Cc2ccc(O)cc2)N=C1C=Cc1ccncc1` [ccA 9], with 0.3 °C.

Regarding `CN1C(=O)C(=Cc2ccc(O)cc2)N=C1C=Cc1ccc(O)c(Br)c1` [ccA 10], the “LTR-III ΔTm” value in series [2] came out at 0.7 °C. The same measure, in the same setting: then `CN1C(=O)C(=Cc2ccc(O)cc2)N=C1C=Cc1ccc(O)c([N+](=O)[O-])c1` [ccA 11], with 0.1 °C; and `CN1C(=O)C(=Cc2ccc(O)cc2)N=C1C=Cc1cc(Br)c(O)c(Br)c1` [ccA 12], with 0.2 °C. With `CN1C(=O)C(=Cc2ccc(O)cc2)N=C1C=Cc1ccccc1O` [ccA 15], the “LTR-III ΔTm” value in series [2] turned out to be 0.5 °C. Take `CN1C(=O)C(=Cc2ccc(O)cc2)N=C1C=Cc1ccc(C(=O)O)cc1` [ccA 16]: the “LTR-III ΔTm” value in series [2] was 0.8 °C. In the case of `CN1C(=O)C(=Cc2ccc(O)cc2)N=C1C=Cc1ccccc1F` [ccA 18], in series [2], the “LTR-III ΔTm” value was found to be 0.1 °C. The same measure, in the same setting: then `CN1C(=O)C(=Cc2ccc(O)cc2)N=C1C=Cc1cccs1` [ccA 19], with -0.1 °C. Same read-out and setting: then `COc1ccccc1C=CC1=NC(=Cc2ccc(O)cc2)C(=O)N1C` [ccA 20], with 0.4 °C; and `CN1C(=O)C(=Cc2ccc(O)cc2)N=C1C=Cc1ccc(N(C)C)cc1` [ccA 22], with 0.3 °C; and `CNC(=O)c1cc(/C=C2N=C(/C=C/c3cccs3)N(C)C\2=O)ccc1O` [ccD 1], with 0.7 °C. Same read-out and setting: with `CNC(=O)c1cc(C=C2N=C(C=Cc3cc(Br)c(O)c(Br)c3)N(C)C2=O)ccc1O` [ccD 2] the figure was 0.2 °C; with `CC(=O)NCCN1C(=O)C(=Cc2ccc(O)cc2)N=C1C=Cc1ccc(O)cc1` [ccE 2], -0.1 °C. As to `COc1ccc(/C=C/C2=NC(=C\c3ccc(O)cc3)/C(=O)N2CCNC(C)=O)cc1` [ccE 4], in series [2], the “LTR-III ΔTm” value came to 2.8 °C and the “LTR-III (average)” value was 2,8 °C. Further, in the series on MT4 cells, the CC50 is over 25 µM and the “СС50 (MT4)” value was over 25 µM. As for `COc1ccccc1C=CC1=NC(=Cc2ccc(O)cc2)C(=O)N1CCNC(C)=O` [ccE 7], the “LTR-III ΔTm” value in series [2] stood at 0.3 °C.
